Assay results taken from BindingDB's records for doi:10.1021/jm00107a051 (Merck Sharp and Dohme Research Laboratories, 1991).

Target: T1, Dimer of Gag-Pol polyprotein [489-587] (Human immunodeficiency virus 1, UniProt P12497)
T1 construct: 489-587
Experiment: Protease Inhibition Assay
Details: pH 5.5; 30 °C
Description: Sensitivity of HIV-1 protease activity to protease inhibitors was determined by a peptide substrate cleavage assay. Protease products were analyzed on a reverse-phase high-pressure liquid chromatograph.

First: CC(C)(C)OC(=O)N[C@@H](Cc1ccccc1)[C@@H](O)C[C@@H](Cc1ccccc1)C(=O)NC1Cc2ccccc2C1 [tert-butyl N-[(2S,3S,5R)-5-benzyl-5-(2,3-dihydro-1H-inden-2-ylcarbamoyl)-3-hydroxy-1-phenylpentan-2-yl]carbamate]
Second: CC(C)(C)OC(=O)N[C@@H](Cc1ccccc1)[C@@H](O)C[C@@H](Cc1ccccc1)C(=O)N[C@@H]1c2ccccc2C[C@@H]1O [tert-butyl N-[(2S,3S,5R)-5-benzyl-3-hydroxy-5-{[(1R,2S)-2-hydroxy-2,3-dihydro-1H-inden-1-yl]carbamoyl}-1-phenylpentan-2-yl]carbamate]
The IC50 of the first is 12-fold lower: 19 nM for the first, 229 nM for the second.

`CC(C)(C)OC(=O)N[C@@H](Cc1ccccc1)[C@@H](O)C[C@@H](Cc1ccccc1)C(=O)N[C@H]1c2ccccc2[C@@H](N)[C@H]1O` [tert-butyl N-[(2S,3S,5R)-5-{[(1S,2R,3R)-3-amino-2-hydroxy-2,3-dihydro-1H-inden-1-yl]carbamoyl}-5-benzyl-3-hydroxy-1-phenylpentan-2-yl]carbamate] and `CC(C)(C)OC(=O)N[C@@H](Cc1ccccc1)[C@@H](O)C[C@@H](Cc1ccccc1)C(=O)N[C@H]1c2ccccc2C[C@H]1C(N)=O` [tert-butyl N-[(2S,3S,5R)-5-benzyl-5-{[(1R,2R)-2-carbamoyl-2,3-dihydro-1H-inden-1-yl]carbamoyl}-3-hydroxy-1-phenylpentan-2-yl]carbamate] are within 1.5-fold of each other in IC50: 1.9 nM for the first, 1.8 nM for the second.
